Test results published in patent US11767310B2, “Nicotinamide RIPK1 inhibitors” (AbbVie Inc., priority 2021, dated 2023).
Where two headings read alike, the source gives them in different places.

Experiments:
PKNB(M.tuberculosis) = PKNB(M.tuberculosis) (Mycobacterium tuberculosis (strain ATCC 25618 / H37Rv), UniProt P9WI81); test: Kinase binding screen; settings: read-out: Percent Control at 100 nM Compound Concentration
PIM2 = PIM2 (Homo sapiens (Human), UniProt Q9P1W9); test: Kinase binding screen; settings: read-out: Percent Control at 100 nM Compound Concentration
PIM2, sequence (Q9P1W9 whole entry): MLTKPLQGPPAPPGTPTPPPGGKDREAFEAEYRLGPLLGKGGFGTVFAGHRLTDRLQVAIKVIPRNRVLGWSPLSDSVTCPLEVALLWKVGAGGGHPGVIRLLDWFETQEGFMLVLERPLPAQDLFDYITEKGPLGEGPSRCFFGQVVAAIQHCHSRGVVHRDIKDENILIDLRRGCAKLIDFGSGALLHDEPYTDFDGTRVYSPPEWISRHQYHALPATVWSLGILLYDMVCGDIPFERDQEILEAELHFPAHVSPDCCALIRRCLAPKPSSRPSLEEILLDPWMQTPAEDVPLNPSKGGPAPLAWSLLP

INSRR = INSRR (Homo sapiens (Human), UniProt P14616); test: Kinase binding screen; settings: read-out: Percent Control at 100 nM Compound Concentration
[1] = target: EGFR(L747-S752del, P753S) (Homo sapiens (Human), UniProt P00533, DEL747-752/P753S); test: Kinase binding screen; settings: read-out: Percent Control at 100 nM Compound Concentration
SIK2 = SIK2 (Homo sapiens (Human), UniProt Q9H0K1); test: Kinase binding screen; settings: read-out: Percent Control at 100 nM Compound Concentration
DYRK1B = DYRK1B (Homo sapiens (Human), UniProt Q9Y463); test: Kinase binding screen; settings: read-out: Percent Control at 100 nM Compound Concentration
DAPK1 = DAPK1 (Homo sapiens (Human), UniProt P53355); test: Kinase binding screen; settings: read-out: Percent Control at 100 nM Compound Concentration
TNIK = TNIK (Homo sapiens (Human), UniProt Q9UKE5); test: Kinase binding screen; settings: read-out: Percent Control at 100 nM Compound Concentration
INSR = INSR (Homo sapiens (Human), UniProt P06213); test: Kinase binding screen; settings: read-out: Percent Control at 100 nM Compound Concentration
INSR, sequence (P06213 28-1382): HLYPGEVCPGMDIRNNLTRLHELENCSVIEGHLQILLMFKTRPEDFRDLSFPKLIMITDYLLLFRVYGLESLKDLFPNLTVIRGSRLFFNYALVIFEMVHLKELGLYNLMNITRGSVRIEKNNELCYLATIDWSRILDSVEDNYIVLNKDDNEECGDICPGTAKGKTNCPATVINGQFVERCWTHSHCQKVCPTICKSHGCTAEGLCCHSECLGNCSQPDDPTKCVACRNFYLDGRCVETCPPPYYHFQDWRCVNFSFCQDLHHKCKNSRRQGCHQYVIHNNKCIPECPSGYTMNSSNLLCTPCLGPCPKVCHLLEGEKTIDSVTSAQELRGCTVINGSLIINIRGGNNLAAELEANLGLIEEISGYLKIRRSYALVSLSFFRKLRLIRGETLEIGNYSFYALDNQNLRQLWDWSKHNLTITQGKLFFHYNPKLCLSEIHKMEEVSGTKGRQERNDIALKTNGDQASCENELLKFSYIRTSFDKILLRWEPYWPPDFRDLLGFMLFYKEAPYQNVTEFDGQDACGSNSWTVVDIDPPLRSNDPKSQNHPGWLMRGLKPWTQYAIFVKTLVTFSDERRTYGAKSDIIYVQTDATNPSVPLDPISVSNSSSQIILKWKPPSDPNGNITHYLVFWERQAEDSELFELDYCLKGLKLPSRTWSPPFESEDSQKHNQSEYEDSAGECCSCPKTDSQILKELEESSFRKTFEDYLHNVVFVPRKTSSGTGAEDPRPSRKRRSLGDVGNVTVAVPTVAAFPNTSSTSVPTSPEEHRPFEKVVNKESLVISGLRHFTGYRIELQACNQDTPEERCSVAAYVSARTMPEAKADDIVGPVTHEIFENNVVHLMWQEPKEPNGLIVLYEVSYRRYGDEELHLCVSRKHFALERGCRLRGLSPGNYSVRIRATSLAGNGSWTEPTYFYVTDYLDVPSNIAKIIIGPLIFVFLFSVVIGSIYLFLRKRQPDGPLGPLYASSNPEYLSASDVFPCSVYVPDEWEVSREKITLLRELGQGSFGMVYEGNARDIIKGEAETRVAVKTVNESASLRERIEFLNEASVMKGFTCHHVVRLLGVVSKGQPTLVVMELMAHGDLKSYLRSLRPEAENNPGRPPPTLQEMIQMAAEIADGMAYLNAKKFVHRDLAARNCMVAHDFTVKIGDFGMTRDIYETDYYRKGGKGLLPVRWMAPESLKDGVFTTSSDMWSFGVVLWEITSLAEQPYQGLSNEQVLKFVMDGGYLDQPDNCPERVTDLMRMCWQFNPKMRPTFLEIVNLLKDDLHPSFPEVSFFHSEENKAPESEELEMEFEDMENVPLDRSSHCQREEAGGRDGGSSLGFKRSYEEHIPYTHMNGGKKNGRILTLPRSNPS

PRKD2 = PRKD2 (Homo sapiens (Human), UniProt Q9BZL6); test: Kinase binding screen; settings: read-out: Percent Control at 100 nM Compound Concentration
[2] = target: RPS6KA5(Kin.Dom.2-C-terminal) (Homo sapiens (Human), UniProt O75582); test: Kinase binding screen; settings: read-out: Percent Control at 100 nM Compound Concentration
CAMK4 = CAMK4 (Homo sapiens (Human), UniProt Q16566); test: Kinase binding screen; settings: read-out: Percent Control at 100 nM Compound Concentration
CAMK4, sequence (Q16566 whole entry): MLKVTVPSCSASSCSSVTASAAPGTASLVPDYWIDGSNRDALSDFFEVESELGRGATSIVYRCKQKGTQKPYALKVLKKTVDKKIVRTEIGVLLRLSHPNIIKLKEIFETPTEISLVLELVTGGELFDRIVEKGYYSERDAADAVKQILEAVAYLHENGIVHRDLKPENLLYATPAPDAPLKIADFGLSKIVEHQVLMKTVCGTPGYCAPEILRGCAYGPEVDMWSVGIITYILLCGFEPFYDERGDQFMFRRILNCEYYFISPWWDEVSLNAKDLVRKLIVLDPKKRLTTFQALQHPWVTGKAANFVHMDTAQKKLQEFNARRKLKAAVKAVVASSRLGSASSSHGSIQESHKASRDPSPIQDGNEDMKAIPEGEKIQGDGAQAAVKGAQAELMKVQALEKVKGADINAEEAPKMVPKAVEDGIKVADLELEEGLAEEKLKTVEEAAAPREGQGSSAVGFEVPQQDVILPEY

WNK1 = WNK1 (Homo sapiens (Human), UniProt Q9H4A3); test: Kinase binding screen; settings: read-out: Percent Control at 100 nM Compound Concentration
MAST1 = MAST1 (Homo sapiens (Human), UniProt Q9Y2H9); test: Kinase binding screen; settings: read-out: Percent Control at 100 nM Compound Concentration
MAST1, sequence (Q9Y2H9 whole entry): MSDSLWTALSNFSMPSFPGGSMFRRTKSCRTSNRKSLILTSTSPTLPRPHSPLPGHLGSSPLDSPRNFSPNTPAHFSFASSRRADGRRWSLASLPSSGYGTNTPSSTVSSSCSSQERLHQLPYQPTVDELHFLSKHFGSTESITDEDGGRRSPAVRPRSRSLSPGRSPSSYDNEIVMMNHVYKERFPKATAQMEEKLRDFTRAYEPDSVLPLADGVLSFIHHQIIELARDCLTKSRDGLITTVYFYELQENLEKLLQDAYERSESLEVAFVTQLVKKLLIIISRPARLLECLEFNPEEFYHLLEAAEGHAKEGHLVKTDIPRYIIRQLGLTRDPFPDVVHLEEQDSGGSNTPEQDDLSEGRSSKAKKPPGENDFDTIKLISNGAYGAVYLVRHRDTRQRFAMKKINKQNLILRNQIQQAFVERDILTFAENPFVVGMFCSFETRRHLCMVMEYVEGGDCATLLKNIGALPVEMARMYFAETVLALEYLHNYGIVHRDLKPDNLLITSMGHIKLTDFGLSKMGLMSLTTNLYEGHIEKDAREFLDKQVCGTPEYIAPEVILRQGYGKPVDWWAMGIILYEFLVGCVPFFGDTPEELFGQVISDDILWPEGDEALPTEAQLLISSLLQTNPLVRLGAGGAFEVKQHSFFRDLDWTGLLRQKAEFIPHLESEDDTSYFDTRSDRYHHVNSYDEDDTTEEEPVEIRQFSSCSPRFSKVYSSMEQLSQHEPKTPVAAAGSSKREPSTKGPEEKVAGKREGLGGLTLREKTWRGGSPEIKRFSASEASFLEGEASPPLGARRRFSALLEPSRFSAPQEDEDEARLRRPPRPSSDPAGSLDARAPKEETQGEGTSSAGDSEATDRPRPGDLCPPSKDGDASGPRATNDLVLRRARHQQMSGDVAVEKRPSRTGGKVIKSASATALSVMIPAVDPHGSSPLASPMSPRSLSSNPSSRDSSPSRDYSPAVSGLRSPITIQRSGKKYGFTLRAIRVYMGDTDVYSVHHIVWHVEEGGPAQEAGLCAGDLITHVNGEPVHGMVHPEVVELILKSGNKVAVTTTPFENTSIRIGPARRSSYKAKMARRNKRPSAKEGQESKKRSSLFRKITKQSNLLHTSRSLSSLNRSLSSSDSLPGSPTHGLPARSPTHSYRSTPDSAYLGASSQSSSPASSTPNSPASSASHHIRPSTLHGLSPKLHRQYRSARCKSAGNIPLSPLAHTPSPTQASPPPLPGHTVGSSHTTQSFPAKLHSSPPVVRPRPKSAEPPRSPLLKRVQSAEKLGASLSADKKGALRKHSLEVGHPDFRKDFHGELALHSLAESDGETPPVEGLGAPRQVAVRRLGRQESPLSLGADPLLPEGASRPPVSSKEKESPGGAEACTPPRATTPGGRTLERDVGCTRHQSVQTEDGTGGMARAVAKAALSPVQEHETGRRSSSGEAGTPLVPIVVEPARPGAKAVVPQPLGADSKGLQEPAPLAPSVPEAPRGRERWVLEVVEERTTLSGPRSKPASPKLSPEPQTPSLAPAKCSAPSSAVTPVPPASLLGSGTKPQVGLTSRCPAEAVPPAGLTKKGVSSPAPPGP

PDGFRB = PDGFRB (Homo sapiens (Human), UniProt P09619); test: Kinase binding screen; settings: read-out: Percent Control at 100 nM Compound Concentration
HUNK = HUNK (Homo sapiens (Human), UniProt P57058); test: Kinase binding screen; settings: read-out: Percent Control at 100 nM Compound Concentration
FLT4 = FLT4 (Homo sapiens (Human), UniProt P35916); test: Kinase binding screen; settings: read-out: Percent Control at 100 nM Compound Concentration
FGFR1 = FGFR1 (Homo sapiens (Human), UniProt P11362); test: Kinase binding screen; settings: read-out: Percent Control at 100 nM Compound Concentration
FGFR1, sequence (P11362 22-822): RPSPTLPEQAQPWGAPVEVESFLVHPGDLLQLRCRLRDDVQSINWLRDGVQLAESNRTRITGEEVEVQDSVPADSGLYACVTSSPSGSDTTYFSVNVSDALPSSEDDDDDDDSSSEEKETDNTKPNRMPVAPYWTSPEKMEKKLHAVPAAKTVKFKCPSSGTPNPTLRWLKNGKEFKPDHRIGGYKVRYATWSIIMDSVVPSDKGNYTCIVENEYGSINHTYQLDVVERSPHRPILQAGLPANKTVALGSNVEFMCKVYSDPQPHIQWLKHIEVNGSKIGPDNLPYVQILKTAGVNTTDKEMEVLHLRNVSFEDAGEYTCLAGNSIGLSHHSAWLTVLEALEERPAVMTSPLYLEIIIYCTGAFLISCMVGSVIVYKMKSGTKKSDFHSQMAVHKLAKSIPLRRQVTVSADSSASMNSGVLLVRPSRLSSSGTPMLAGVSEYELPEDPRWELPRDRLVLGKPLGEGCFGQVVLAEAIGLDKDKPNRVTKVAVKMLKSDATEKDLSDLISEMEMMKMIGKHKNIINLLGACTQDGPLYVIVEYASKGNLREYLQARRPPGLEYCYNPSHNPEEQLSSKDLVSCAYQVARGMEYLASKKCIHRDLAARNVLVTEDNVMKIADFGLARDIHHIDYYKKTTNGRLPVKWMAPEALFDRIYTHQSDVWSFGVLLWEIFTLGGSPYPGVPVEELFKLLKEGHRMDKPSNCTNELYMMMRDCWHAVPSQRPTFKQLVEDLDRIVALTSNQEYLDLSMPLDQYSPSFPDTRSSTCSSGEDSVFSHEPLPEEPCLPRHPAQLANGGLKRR

FLT3(D835Y) = FLT3(D835Y) (Homo sapiens (Human), UniProt P36888, D835Y); test: Kinase binding screen; settings: read-out: Percent Control at 100 nM Compound Concentration
DRAK2 = DRAK2 (Homo sapiens (Human), UniProt O94768); test: Kinase binding screen; settings: read-out: Percent Control at 100 nM Compound Concentration
DRAK2, sequence (O94768 whole entry): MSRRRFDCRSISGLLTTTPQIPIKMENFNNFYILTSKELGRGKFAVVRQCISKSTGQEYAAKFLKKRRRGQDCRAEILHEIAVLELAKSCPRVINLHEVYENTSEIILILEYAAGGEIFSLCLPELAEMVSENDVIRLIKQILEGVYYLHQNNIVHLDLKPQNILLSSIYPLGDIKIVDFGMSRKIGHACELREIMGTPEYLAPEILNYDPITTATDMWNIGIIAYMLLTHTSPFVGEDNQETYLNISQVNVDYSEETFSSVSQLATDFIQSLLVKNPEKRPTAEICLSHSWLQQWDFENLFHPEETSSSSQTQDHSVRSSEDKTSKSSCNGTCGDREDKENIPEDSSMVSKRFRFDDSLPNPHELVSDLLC

[3] = Prodrug bioconversion in intestinal S9 cell fractions; format: in vitro ADME; settings: 0.25 mg/mL
Procedure: Phosphatase enzymes are […] expressed with unique tissue specific isoforms and are key catalysts in the conversion of phosphate-containing prodrugs. To determine if exemplary phosphate prodrug compounds of the invention are enzymatically converted to the parent molecule across relevant species, the prodrug compounds were incubated with intestinal S9 cell fractions obtained from mouse, rat, dog, monkey, and human.
Phosphate prodrugs were incubated (1 μM) for up to 2 hours in Tris-Cl buffer (pH 7.4) containing 3 mM magnesium chloride, intestinal S9 protein ([…] (ms, rat, hu, Table F) from mouse, rat, dog, monkey or human. Incubations were conducted in the absence and presence of 1 mM sodium orthovanadate, a phosphatase inhibitor. Prodrug depletion and parent formation were monitored by LC-MS/MS and normalized to internal standard as the analyte peak area ratio.

CN(C[C@@H](O)Cc1ccccc1)C(=O)c1cncc(C#Cc2cnn(C(F)F)c2)c1 [Example 2, (S)-5-((1-(difluoromethyl)-1H-pyrazol-4-yl)ethynyl)-N-(2-hydroxy-3-phenylpropyl)-N-methylnicotinamide]
remaining activity at 0.1 µM (PKNB(M.tuberculosis)): 100%
remaining activity at 0.1 µM (PIM2; PIM2): 95%
remaining activity at 0.1 µM (INSRR; INSRR): 100%
remaining activity at 0.1 µM ([1]; EGFR(L747-S752del, P753S)): 100%
remaining activity at 0.1 µM (SIK2; SIK2): 89%
remaining activity at 0.1 µM (DYRK1B; DYRK1B): 97%
remaining activity at 0.1 µM (DAPK1; DAPK1): 100%
remaining activity at 0.1 µM (TNIK; TNIK): 100%
remaining activity at 0.1 µM (INSR; INSR): 100%
remaining activity at 0.1 µM (PRKD2; PRKD2): 79%
remaining activity at 0.1 µM ([2]; RPS6KA5(Kin.Dom.2-C-terminal)): 95%
remaining activity at 0.1 µM (CAMK4; CAMK4): 100%
remaining activity at 0.1 µM (WNK1; WNK1): 93%
remaining activity at 0.1 µM (MAST1; MAST1): 100%
remaining activity at 0.1 µM (PDGFRB; PDGFRB): 100%
remaining activity at 0.1 µM (HUNK; HUNK): 82%
remaining activity at 0.1 µM (FLT4; FLT4): 100%
remaining activity at 0.1 µM (FGFR1; FGFR1): 94%
remaining activity at 0.1 µM (FLT3(D835Y); FLT3(D835Y)): 100%
remaining activity at 0.1 µM (DRAK2; DRAK2): 100%

CN(C[C@H](Cc1ccccc1)OP(=O)(O)O)C(=O)c1cncc(C#Cc2cnn(C(F)F)c2)c1 [Example 19, (S)-1-(5-((1-(difluoromethyl)-1H-pyrazol-4-yl)ethynyl)-N-methylnicotinamido)-3-phenylpropan-2-yl dihydrogen phosphate]
remaining activity at 0.1 µM (PKNB(M.tuberculosis)): 100%
remaining activity at 0.1 µM (PIM2): 100%
remaining activity at 0.1 µM (INSRR): 100%
remaining activity at 0.1 µM [1]: 97%
Clint (prodrug disappearance) ([3]; Dog, Experiment 1): 331 μL/min/mg intestinal S9 protein
Clint (prodrug disappearance) ([3]; Dog, Experiment 2): 387 μL/min/mg intestinal S9 protein
Clint (prodrug disappearance) ([3]; Dog, Experiment 3): 397 μL/min/mg intestinal S9 protein
Clint (prodrug disappearance) ([3]; Dog, Mean of 3 experiments): 371.7 μL/min/mg intestinal S9 protein
Clint (prodrug disappearance) ([3]; Monkey, Experiment 1): 87.5 μL/min/mg intestinal S9 protein
Clint (prodrug disappearance) ([3]; Monkey, Experiment 2): 60.3 μL/min/mg intestinal S9 protein
Clint (prodrug disappearance) ([3]; Monkey, Experiment 3): 60.7 μL/min/mg intestinal S9 protein
Clint (prodrug disappearance) ([3]; Monkey, Mean of 3 experiments): 69.5 μL/min/mg intestinal S9 protein
remaining activity at 0.1 µM (SIK2): 96%
remaining activity at 0.1 µM (DYRK1B): 79%
remaining activity at 0.1 µM (DAPK1): 100%
remaining activity at 0.1 µM (TNIK): 100%
remaining activity at 0.1 µM (INSR): 100%
remaining activity at 0.1 µM (PRKD2): 100%
remaining activity at 0.1 µM [2]: 90%
remaining activity at 0.1 µM (CAMK4): 100%
remaining activity at 0.1 µM (WNK1): 94%
remaining activity at 0.1 µM (MAST1): 97%
remaining activity at 0.1 µM (PDGFRB): 100%
remaining activity at 0.1 µM (HUNK): 96%
remaining activity at 0.1 µM (FLT4): 100%
remaining activity at 0.1 µM (FGFR1): 95%
remaining activity at 0.1 µM (FLT3(D835Y)): 100%
remaining activity at 0.1 µM (DRAK2): 100%
